Test systems include SNB-75; K562; HT-29; CCRF-CEM; NCI-H522; HCC 2998; TK-10; UO-31; HOP-62; EKVX; HL-60; 786-0; HCT-15; RXF 393; A498.
Holding throughout (experiment): inhibition of tumour cell growth, NCI panel, 48 h

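96-well plates; 48 h exposure; 5 concentrations. Endpoints by linear interpolation between flanking doses. Not reached: highest tested concentration assigned. GI50 = concentration required for 50% inhibition of growth.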 Activity calls are given as the source filed them. Rule as the data show it: active = GI50 up to about 1.1 µM and inactive = higher. Some results are limits rather than exact numbers.

Take `c1cnc2c(c1)-n1cccc1C1(CCSC1)NN2` (configuration not stated): the GI50 in the assay on SNB-75, with K562, with HT-29, in the assay on CCRF-CEM, in the assay with NCI-H522 and in the assay on HCC 2998 was > 100 µM (inactive) throughout. Moreover, the GI50 in the assay on TK-10, in the assay with UO-31, in the assay with HOP-62, in the assay with EKVX, with HL-60 and with 786-0 was > 100 µM (inactive) throughout. In addition, the GI50 in the assay on HCT-15 is > 100 µM.
For the compound `COC(=O)C(Cc1nc2ccccc2nc1O)C(=O)C(=O)Nc1ccc(OC)cc1[N+](=O)[O-]` (configuration not stated), the GI50 is > 100 µM (inactive) in the assay with K562; 82.8 µM (inactive) with HT-29; > 100 µM (inactive) with CCRF-CEM; > 100 µM (inactive) in the assay on NCI-H522; > 100 µM (inactive) in the assay on HCC 2998; > 100 µM (inactive) in the assay on TK-10. Moreover, the GI50 is > 100 µM (inactive) in the assay with UO-31; > 100 µM (inactive) in the assay on HOP-62; > 100 µM (inactive) in the assay with EKVX; > 100 µM (inactive) in the assay with HL-60; > 100 µM (inactive) in the assay on 786-0; > 100 µM in the assay with HCT-15.
For the compound `NCC(=O)OCN1C(=O)C2C3C=CC(C2C1=O)C1C2C(=O)N(COC(=O)CN)C(=O)C2C31` (configuration not stated), the GI50 was 23.6 µM (inactive) with SNB-75; 30.5 µM (inactive) in the assay with K562; 40.6 µM (inactive) in the assay on HT-29; 22.9 µM (inactive) in the assay with CCRF-CEM; 12.5 µM (inactive) in the assay with NCI-H522; 20.6 µM (inactive) in the assay with RXF 393. For the same compound, the GI50 was 31.3 µM (inactive) with TK-10; 31.9 µM (inactive) in the assay on UO-31; > 100 µM (inactive) in the assay with HOP-62; 12.4 µM (inactive) with HL-60; 22.8 µM (inactive) in the assay on 786-0; 19.1 µM in the assay on HCT-15. For the same compound, the GI50 with A498 was > 100 µM (inactive).
For the compound `Cc1ccc(NC(=O)CC(=O)N2N=C(N(CCC#N)c3cccc(C)c3)CC2c2ccccc2)cc1` (configuration not stated), the GI50 with SNB-75, with K562, in the assay on HT-29, in the assay on CCRF-CEM, with NCI-H522 and in the assay on HCC 2998 was > 100 µM (inactive) throughout. Further, the GI50 with RXF 393 is > 100 µM (inactive); in the assay with UO-31, > 100 µM (inactive); in the assay on HOP-62, > 100 µM (inactive); in the assay on EKVX, 5.97 µM (inactive); with HL-60, > 100 µM (inactive); in the assay on 786-0 it was > 100 µM (inactive). Further, the GI50 in the assay with HCT-15 was > 100 µM.
`CCOC(=O)N[C@@H]1C2CC(=O)C(O2)[C@@H]1OC` (some centres not stated): the GI50 in the assay on SNB-75, in the assay with K562, in the assay with HT-29, in the assay with CCRF-CEM, with NCI-H522 and in the assay with HCC 2998 was > 100 µM (inactive) in each case. The GI50 in the assay with RXF 393, in the assay with TK-10, in the assay with UO-31, with HOP-62, with EKVX and in the assay on HL-60 was > 100 µM (inactive) each time. Besides, the GI50 in the assay on 786-0 was > 100 µM (inactive); with HCT-15 it was > 100 µM.
Consider `NC(CCC(=O)Nc1ccc(O)cc1)C(=O)O` (configuration not stated), for which the GI50 with SNB-75, in the assay on K562, in the assay on HT-29, with CCRF-CEM, with NCI-H522 and in the assay with RXF 393 was > 100 µM (inactive) in each case. The GI50 with TK-10, in the assay on UO-31, in the assay on HOP-62, in the assay on EKVX, in the assay with HL-60 and in the assay on 786-0 was > 100 µM (inactive) each time. Moreover, the GI50 is > 100 µM with HCT-15 and > 100 µM (inactive) in the assay with A498.
As to `CCNC(=O)COc1ccc(Br)cc1Br`, the GI50 with SNB-75, with K562, in the assay with HT-29, with CCRF-CEM, in the assay with NCI-H522 and in the assay on HCC 2998 was > 100 µM (inactive) each time. Further, the GI50 in the assay with RXF 393 is > 100 µM (inactive); in the assay on UO-31, > 100 µM (inactive); in the assay on HOP-62, > 100 µM (inactive); with EKVX, 1.98 µM (inactive); in the assay on HL-60, > 100 µM (inactive); with 786-0, > 100 µM (inactive). Also, the figures for the GI50 in the assay on HCT-15 and in the assay on A498 were > 100 µM and > 100 µM (inactive), respectively.
Turning to `N#CC1(c2nc3ccccc3o2)C(=O)C(=O)N(c2ccc(Cl)c(Cl)c2)C(=O)C1=O`, the GI50 in the assay with SNB-75 was > 100 µM (inactive); in the assay with K562, 71 µM (inactive); in the assay on HT-29, > 100 µM (inactive); in the assay with CCRF-CEM, 48 µM (inactive); in the assay on NCI-H522, > 100 µM (inactive); in the assay on HCC 2998 it was > 100 µM (inactive). Further, the GI50 is > 100 µM (inactive) in the assay with RXF 393; > 100 µM (inactive) in the assay with TK-10; > 100 µM (inactive) in the assay on UO-31; > 100 µM (inactive) with HOP-62; > 100 µM (inactive) in the assay with EKVX; 26 µM (inactive) in the assay with HL-60. Moreover, the GI50 in the assay with 786-0 was > 100 µM (inactive); in the assay on HCT-15 it was 74.6 µM.
Regarding `OCC1CC2C=CCC(C2)C1` (configuration not stated), the GI50 in the assay with SNB-75, in the assay on K562, with HT-29, in the assay with CCRF-CEM, with NCI-H522 and in the assay with RXF 393 was > 100 µM (inactive) throughout. Besides, the GI50 in the assay with TK-10, in the assay with UO-31, in the assay on HOP-62, with EKVX, with HL-60 and in the assay on 786-0 was > 100 µM (inactive) in each case. Moreover, in the assay with A498, the GI50 is > 100 µM (inactive).
Regarding `Cc1cc2c(cc1CO)N1Cc3cc(C)c(CO)cc3N(C2)C1`, the GI50 in the assay on SNB-75, in the assay on K562, in the assay on HT-29, in the assay on CCRF-CEM, in the assay on NCI-H522 and in the assay with HCC 2998 was > 100 µM (inactive) in each case. In addition, the GI50 in the assay with RXF 393, in the assay with TK-10, with HOP-62, with EKVX, with HL-60 and in the assay on 786-0 was > 100 µM (inactive) each time.
As to `Cc1ccc(NC(=O)C(=O)C(C#N)c2nc(-c3ccc(-c4ccccc4)cc3)cs2)c(C)c1` (configuration not stated), the GI50 in the assay on SNB-75, in the assay on HCC 2998, with RXF 393, with TK-10, in the assay with UO-31 and in the assay on HOP-62 was > 100 µM (inactive) throughout. For the same compound, the GI50 with EKVX was > 100 µM (inactive); with 786-0 it was > 100 µM (inactive); with HCT-15 it was > 100 µM; in the assay on A498, > 100 µM (inactive).
On to `CC(C)(C)c1cc(COc2c3sc(=S)sc3c(OCc3cc(C(C)(C)C)cc(C(C)(C)C)c3)c3sc(=S)sc23)cc(C(C)(C)C)c1`, for which the GI50 with SNB-75, with K562, in the assay on HT-29, with CCRF-CEM, with HCC 2998 and with RXF 393 was > 100 µM (inactive) each time. For the same compound, the GI50 in the assay on TK-10 is > 100 µM (inactive); in the assay with HOP-62, > 100 µM (inactive); in the assay with EKVX, > 100 µM (inactive); in the assay on HL-60, > 100 µM (inactive); in the assay with 786-0 it was > 100 µM (inactive); in the assay on HCT-15, > 100 µM. Further, the GI50 in the assay with A498 is > 100 µM (inactive).
Turning to `CC1CC2(CC[C@@H]1O)OCCO2` (some centres not stated), the GI50 with K562, in the assay with HT-29, in the assay on CCRF-CEM, in the assay on NCI-H522, in the assay with HCC 2998 and with RXF 393 was > 100 µM (inactive) each time. The GI50 with TK-10, in the assay with UO-31, with HOP-62, with EKVX, with HL-60 and in the assay on 786-0 was > 100 µM (inactive) throughout. Further, the GI50 in the assay on HCT-15 was > 100 µM; in the assay on A498, > 100 µM (inactive).
Turning to `COc1ccc(N/N=C(\CCN(C)C)c2ccccc2)cc1`, the GI50 in the assay with SNB-75 is 8.04 µM (inactive); in the assay on K562 it was 2.39 µM (inactive); in the assay on HT-29, 6.85 µM (inactive); in the assay with CCRF-CEM, 1.41 µM (inactive); with NCI-H522, 10.7 µM (inactive); in the assay with RXF 393 it was 15.7 µM (inactive). The GI50 in the assay with TK-10 was 2.23 µM (inactive); in the assay with UO-31, 1.37 µM (inactive); in the assay on HOP-62, 2.1 µM (inactive); in the assay on EKVX, 2.2 µM (inactive); with HL-60 it was 2.82 µM (inactive); in the assay with 786-0, 3.4 µM (inactive). For the same compound, the GI50 in the assay on HCT-15 is 1.15 µM; in the assay on A498 it was 14.9 µM (inactive).
For `NC1CC(n2ccc(=O)[nH]c2=O)OC1C(O)CO` (configuration not stated), the GI50 in the assay on SNB-75, in the assay with K562, in the assay on HT-29, in the assay on CCRF-CEM, with NCI-H522 and with HCC 2998 was > 100 µM (inactive) each time. Also, the GI50 in the assay with RXF 393, in the assay with TK-10, in the assay with UO-31, in the assay on HOP-62, in the assay on EKVX and in the assay with HL-60 was > 100 µM (inactive) throughout. The results for the GI50 in the assay on 786-0 and in the assay with HCT-15 were > 100 µM (inactive) and > 100 µM, respectively.
